From patent publication US20250176599A1, “FLAVOR COMPOSITION AND FOOD AND BEVERAGE” (TAKASAGO INTERNATIONAL CORPORATION, priority 2021, published 2025)

Tests used:
[1] = Sensory evaluation of degradation component-added mayonnaise II (1,5-octadien-3-one 5 ppm)
Description: To commercially available mayonnaise (“Kewpie Mayonnaise” manufactured by Kewpie Corporation), each degradation component was added to prepare degradation component-added mayonnaises I and II at the concentrations listed in Table 20. To these degradation component-added mayonnaises, oleic acid was added at the concentrations listed in Table 21 to confirm the intensity of the off-flavor (masking effect) and the intensity of the masking components (impact on the flavor of the mayonnaise itself) for each sample.
Six experienced panelists were selected to conduct a sensory evaluation similar to that of Example 1.
To the degradation component-added mayonnaise II listed in Table 20, menthyl 3-hydroxybutyrate was added at the concentrations listed in Table 22 to confirm the intensity of the off-flavor (masking effect) and the intensity of the masking component (impact on the flavor of the mayonnaise itself) for each sample.

[2] = Sensory evaluation of degradation component-added shortening II (1,5-octadien-3-one 1 ppb); conditions: average panel score
Description: (§1) To commercially available shortening (“Pampas LTR30” manufactured by Fuji Oil Co., Ltd.), each degradation component was added to prepare degradation component-added shortenings I and II at the concentrations listed in Table 17. To these degradation component-added shortenings, β-ionone was added at the concentrations listed in Table 18 to confirm the intensity of the off-flavor (masking effect) and the intensity of the masking components (impact on the flavor of the shortening itself) for each sample.
(§2) Eight experienced panelists were selected to conduct a sensory evaluation similar to that of Example 1.
(§3) The same method as in Example 16 was used to confirm the intensity of the off-flavor (masking effect) derived from unsaturated fatty acids by β-damascenone and the intensity of the masking components (impact on the flavor of the shortening itself).

[3] = Overall conclusion of the sensory evaluation across shortenings I and II
Description: as §1, §2, §3

[4] = Sensory evaluation of degradation component-added shortening I ((E)-2-octenal 500 ppb); conditions: average panel score
Description: as §1
Eight experienced panelists were selected to conduct a sensory evaluation similar to that of Example 1. […]

SMILES	Masking Component Intensity ([2]; 1 ppb added)	Off-Flavor Intensity ([2]; 1 ppb added)	Masking Component Intensity ([2]; 1 ppt added)	Off-Flavor Intensity ([2]; 1 ppt added)	Masking Component Intensity ([2]; 10 ppb added)	Off-Flavor Intensity ([2]; 10 ppb added)	Masking Component Intensity ([2]; 10 ppt added)	Off-Flavor Intensity ([2]; 10 ppt added)	Masking Component Intensity ([2]; 100 ppt added)	Off-Flavor Intensity ([2]; 100 ppt added)	concentration that masks the off-flavor and does not affect the flavor of the shortening itself, upper limit [3]	Masking Component Intensity ([4]; 1 ppb added)	Off-Flavor Intensity ([4]; 1 ppb added)	Masking Component Intensity ([4]; 1 ppt added)	Off-Flavor Intensity ([4]; 1 ppt added)	Masking Component Intensity ([4]; 10 ppb added)	Off-Flavor Intensity ([4]; 10 ppb added)	Masking Component Intensity ([4]; 10 ppt added)	Off-Flavor Intensity ([4]; 10 ppt added)	Masking Component Intensity ([4]; 100 ppt added)	also measured
CC(O)CC(=O)OC1CC(C)CCC1C(C)C (stereo not shown) [menthyl 3-hydroxybutyrate]																					concentration that masks the off-flavor and does not affect the flavor of the mayonnaise itself, lower limit [1]: ≥ 100 ppt; concentration that masks the off-flavor and does not affect the flavor of the mayonnaise itself, upper limit [1]: ≤ 100 ppm; Masking Component Intensity ([1]; 1 ppb added): 0.2; Off-Flavor Intensity ([1]; 1 ppb added): 3.0; Masking Component Intensity ([1]; 1 ppm added): 0.6; Off-Flavor Intensity ([1]; 1 ppm added): 0.8; Masking Component Intensity ([1]; 10 ppb added): 0.2; Off-Flavor Intensity ([1]; 10 ppb added): 2.2; Masking Component Intensity ([1]; 10 ppm added): 1.0; Off-Flavor Intensity ([1]; 10 ppm added): 0.6; Masking Component Intensity ([1]; 50 ppm added): 1.6; Off-Flavor Intensity ([1]; 50 ppm added): 0.6; Masking Component Intensity ([1]; 100 ppb added): 0.4; Off-Flavor Intensity ([1]; 100 ppb added): 1.6; Masking Component Intensity ([1]; 100 ppm added): 2.0; Off-Flavor Intensity ([1]; 100 ppm added): 0.6; Masking Component Intensity ([1]; 100 ppt added): 0.2; Off-Flavor Intensity ([1]; 100 ppt added): 3.0
C/C=C/C(=O)C1=C(C)C=CCC1(C)C [β-Damascenone, β-damascenone]	2.5	2.3	0.9	3.4	2.6	2.0	1.3	3.0	1.9	2.5	≤ 10 ppb	2.9	1.8	1.1	3.1	3.1	1.1	1.5	2.6	2.1	Off-Flavor Intensity ([4]; 100 ppt added): 2.3
CC(=O)/C=C/C1=C(C)CCCC1(C)C [β-Ionone, β-ionone]	1.9	2.4	0.4	3.6	2.3	2.0	0.9	3.4	1.5	2.8	≤ 10 ppb	2.1	1.5	0.6	3.1	2.6	1.1	1.1	2.6	1.8	concentration that masks the off-flavor and does not affect the flavor of the shortening itself, lower limit [3]: ≥ 10 ppt; Off-Flavor Intensity ([4]; 100 ppt added): 2.4
